According to patent US20030104473A1, “Common ligand mimics: benzimidazoles” (priority 2001, published 2003):
Where two headings read alike, the source gives them in different places.

Assays:
[1] = biological target: T1, alcohol dehydrogenase (ADH) (Saccharomyces cerevisiae, UniProt P00330); assay: ADH kinetic assay, spectrophotometric reduction of NAD+ at 340 nm; format: biochemical, Bakers Yeast
T1 construct: 10 μl of ADH from Bakers Yeast; host or cells: baker's yeast
T1 sequence (P00330 1-348): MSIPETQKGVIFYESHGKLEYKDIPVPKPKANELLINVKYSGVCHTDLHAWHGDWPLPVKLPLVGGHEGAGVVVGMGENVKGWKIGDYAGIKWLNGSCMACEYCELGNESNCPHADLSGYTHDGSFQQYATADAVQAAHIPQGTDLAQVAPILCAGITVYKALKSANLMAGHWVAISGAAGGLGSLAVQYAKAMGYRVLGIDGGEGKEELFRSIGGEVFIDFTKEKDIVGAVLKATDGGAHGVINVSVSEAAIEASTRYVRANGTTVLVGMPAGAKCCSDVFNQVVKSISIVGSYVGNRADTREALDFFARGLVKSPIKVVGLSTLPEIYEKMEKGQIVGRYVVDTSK
Experimental: For ADH analysis, the compounds were screened using a kinetic protocol that spectrophotometrically evaluates reduction of NAD+.
(§1) Stock solutions of each of the reagents were prepared in the following concentrations. Dilutions of the stock solutions were prepared prior to running the assay in the concentrations indicated below.
The ADH reaction was monitored at 340 nm prior to and after addition of the inhibitor to detect background reaction with the inhibitor. Solutions of 100 μl of the inhibitors in DMSO were prepared to provide a final DMSO concentration of 5% of the total assay volume. These solutions were incubated for 6 minutes at 25° C. in a 990 μl of a solution containing 0.1 M HEPES, pH 8.0, 80 μM NAD+, and 130 mM of ethanol. The reaction was then initiated with 10 μl of ADH from Bakers Yeast ([…]; 1:400 dilution of 1.0 mg/ml). After the enzyme was added, the solution was mixed for 20 seconds, and the reaction was run for 10 minutes. After a 50 second lag, the samples were read in a Cary spectrophotometer at 340 nm. Reading of the samples was continued until 300 seconds. Cuvette #1 contained the control reaction (no inhibitor), and cuvette #2 contained the positive control reaction in which Cibacron Blue at 15.5 μM was substituted for inhibitor to yield 50 to 60% inhibition. The substrate was kept at a level at least 10 times the Km. The final concentration of […] was about 2.5 mM.
Where only a simple read was desired, as in the case of NAD+ concentration determination, 13 μl (10 M stock) of ethanol was used to drive the reaction, and 10 μl of pure enzyme (1 mg/ml) was used. NAD+was soluble at 2 mM, which allowed the concentration determination step to be skipped. In this situation, the procedure was as follows. All of the ingredients except for the enzyme were mixed together. The solution was mixed well and the absorbance at 340 nm read. The enzyme was added and read again at OD 340 after the absorbance stopped changing, generally 10 to 15 minutes after the enzyme was added.

[2] = biological target: glyceraldehyde-3-phosphate dehydrogenase (GAPDH) (Escherichia coli, UniProt P0A9B2); assay: GAPDH kinetic assay, spectrophotometric reduction of NAD+ at 340 nm; format: biochemical, E. coli
Experimental: For GAPDH analysis, the compounds were screened using a kinetic protocol that spectrophotometrically evaluates reduction of NAD+.
as §1
The GAPDH reaction was monitored at 340 nm prior to and after addition of the inhibitor to detect background reaction with the inhibitor. Solutions of 100 μl of the inhibitors incubated for 6 minutes at 25° C. in a 990 μl of a solution containing 125 mM triethanolamine, pH 7.5, 145 μM glyceraldehyde 3-phosphate (GAP), 0.211 mM NAD, 5 mM sodium arsenate, and 3 mM β-metcaptoethanol (2-BME). The reaction was then initiated with 10 gl of E. coli GAPDH (1:200 dilution of 1.0 mg/ml). After the enzyme was added, the solution was mixed for 20 seconds, and the reaction was run for 10 minutes. After a 50 second lag, the samples were read in a Cary spectrophotometer at 340 nm. Reading of the samples was continued until 300 seconds. The final concentration of DMSO in a cuvette was about 5% of the total assay volume. Cuvette #1 contained the control reaction (no inhibitor).
GAP for use in this experiment was deprotected from the diethyl acetal in the following manner. Water was boiled in recrystallizing dish. […]

[3] = biological target: dihydrofolate reductase (DHFR) (UniProt P00374); assay: DHFR kinetic assay, spectrophotometric oxidation of NADH at 340 nm; format: biochemical
Experimental: For DHFR analysis, the compounds were screened using a kinetic protocol that spectrophotometrically evaluates oxidation of NADH.
Stock solutions of each of the reagents were prepared in the following concentrations. Dilutions of the stock solutions were prepared prior to running the assay in the concentrations indicated below. H2 folate was dissolved in DMSO to about 10 mM and then diluted with water to a concentration of 0.1 mM.
The DHFR reaction was monitored at 340 nm prior to and after addition of the inhibitor to detect background reaction with the inhibitor. Solutions of 100 μl of the inhibitors in DMSO were prepared to provide a final DMSO concentration of 5% of the total assay volume. These solutions were incubated for 6 minutes at 25° C. in a 992 μl of a solution containing 0.1 M Tris-HCl, pH 7.0, 150 mM KCl, 5 μM H2 folate, and 52 μM NADH. The oxidation reaction was then initiated with 8 μl of DHFR (0.047 mg/ml). After the enzyme was added, the solution was mixed for 20 seconds, and the reaction was run for 10 minutes. After a 50 second lag, the samples were read in a Cary spectrophotometer at 340 nm. Reading of the samples was continued until 300 seconds. Cuvette #1 always contained the control reaction (no inhibitor), and cuvette #2 always contained the positive control reaction in which Cibacron Blue at 3 μM was substituted for inhibitor to yield 50 to 70% inhibition. […]

Chain of glyceraldehyde-3-phosphate dehydrogenase (GAPDH) (P0A9B2 whole entry): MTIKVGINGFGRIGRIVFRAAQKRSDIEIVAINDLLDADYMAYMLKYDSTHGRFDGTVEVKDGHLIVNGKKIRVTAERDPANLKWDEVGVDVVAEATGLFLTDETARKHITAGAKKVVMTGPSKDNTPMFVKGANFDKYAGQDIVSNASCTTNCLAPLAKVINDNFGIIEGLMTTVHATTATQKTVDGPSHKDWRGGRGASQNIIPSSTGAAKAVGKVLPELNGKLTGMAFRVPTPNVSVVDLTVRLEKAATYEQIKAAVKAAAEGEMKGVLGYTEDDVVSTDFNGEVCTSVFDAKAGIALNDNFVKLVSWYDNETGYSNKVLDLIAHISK
Chain of dihydrofolate reductase (DHFR) (P00374 whole entry): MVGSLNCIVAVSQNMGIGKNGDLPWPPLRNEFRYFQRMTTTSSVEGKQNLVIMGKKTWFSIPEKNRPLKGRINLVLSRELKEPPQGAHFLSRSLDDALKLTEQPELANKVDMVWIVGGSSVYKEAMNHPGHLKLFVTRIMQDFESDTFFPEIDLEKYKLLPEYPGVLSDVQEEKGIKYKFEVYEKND

Compound | IC50 [1] [µM] | IC50 [2] [µM] | IC50 ([3]; read-out: IC50 for DHFR; Example 13 oxidoreductase panel (FIG. 7)) [µM] | IC50 ([2]; Example 13 oxidoreductase panel (FIG. 7), read-out: IC50 for GAPDH) [µM] | IC50 ([3]; Example 13 oxidoreductase panel (FIG. 7); read-out: IC50 for DHFR) [µM]
O=C(O)c1ccc(-c2ccc(-c3nc4cc([N+](=O)[O-])ccc4[nH]3)o2)cc1 [compound 6d, 4-[5-(5-nitro-1H-benzoimidazol-2-yl)-furan-2-yl]-benzoic acid] | > 150 | > 150 | 48.5 |  | 
O=C(O)c1ccc(-c2ccc(-c3nc4ccccc4[nH]3)o2)cc1 [compound 6b, 4-[5-(1H-benzoimidazol-2-yl)-furan-2-yl] benzoic acid] | 49 |  |  | > 60 | > 40
